We go through 16 compounds from article PMC11435156, “Exploring Quinazoline Nitro-Derivatives as Potential Antichagasic Agents: Synthesis and In Vitro Evaluation” (Molecules, 2024).

Data set [1] deals with HFF1 human foreskin fibroblasts. The data set can be described thus: Viability of human foreskin fibroblasts (trypan blue exclusion). To be noted: for HFF1 LD50: human. Here is the method:
To evaluate the effect on cell viability, HFF1 cells cultured and washed as above were dispensed in a 96 well plate to a concentration of 1 × 10^4 cells/well in 0.2 mL and incubated for 24 h at 37 °C for adherence. […] To determine viability, cells were detached by trypsinization and then collected, and viability was determined by trypan blue exclusion.

Data set [2] concerns T. cruzi Queretaro strain epimastigotes. The data set can be described thus: Growth of epimastigotes cultured in vitro (motile parasites counted, relative growth). The data set is classed as cell-based, Trypanosoma cruzi. The following applies: for S.I. LD50/ED50: HFF1 LD50 / epimastigote ED50; for IC50: Trypanosoma cruzi, read-out: Epi ED50; for antiparasitic effect, summary in words: epimastigotes and trypomastigotes, summary of Table 2; for Epi ED50 (initial screening): initial screening done in 5 mL culture. The protocol: Epimastigotes were grown at 28 °C.
Epimastigotes were grown in LIT medium at the exponential phase and aliquots of 1 × 10^5 parasites were dispensed in 200 µL/well in a 96-well culture plate (Corning; NY, USA). […] Control samples without the compounds were supplemented with the maximum amount of vehicle used. […] Afterwards, the number of mobile epimastigotes (motility as parameter of viability) was counted in a Neubauer chamber. Relative growth is the difference of the final density of parasites after 24 h of treatment with the compound minus the density of parasites at time 0 of exposure; these differences were further normalized to the relative growth of the culture without compound. Plots of the percentage of relative growth against compound concentration were built and data adjusted to dose–response equation with the Origin Pro software (Origin Pro version 8.0) to calculate the concentration at which the variable is decreased by 50%.

For data set [3], the system named is T. cruzi Queretaro strain trypomastigotes. The data set can be described thus: Viability of trypomastigotes (motility as parameter of viability). The data set is classed as cell-based. The following applies: Trypanosoma cruzi, read-out: Trypo LD50. The protocol: For the primary infection, 20,000 HFF1 cells/mL were inoculated in 5 mL DMEM supplemented with 10% FBS in a 175 cm^2 flask (Corning; Corning, NY, USA;) and cultivated at 37 °C and 5% CO2 for 24 h for adherence. Afterwards, the medium was changed to DMEM supplemented with 2% FBS and the cells were infected with 10 × 10^6 epimastigotes previously collected and washed with 10 mL DMEM without FBS. The cells were incubated for 48 h at 37 °C and 5% CO2 and later washed every 24 h with DMEM with 2%FBS until trypomastigotes liberation (5–7 days post infection).
For the secondary infection, LLC-MK2 cells (epithelial cells from the kidney of an adult monkey) were infected in a similar fashion to the primary infection, but using 1 × 10^6 trypomastigotes obtained from the primary infection. The released trypomastigotes were used immediately for drug treatment.
The number of mobile trypomastigotes (motility as parameter of viability) was determined using a Neubauer chamber. Data were processed as above.

The mark [4] stands for this setting: 120 h, epimastigote growth, 5 days, single initial pulse of compound.
[5] abbreviates: epimastigote relative growth, 24 h treatment, 96-well plate.
[6] abbreviates: trypomastigote viability, 3 h treatment.

Where two headings read alike, the source gives them in different places. Marks after values point to notes of the source that are not given here.

Take `O=C(Cn1ccnc1[N+](=O)[O-])NCc1ccccc1` [Bnz, N-benzyl-2-(2-nitroimidazol-1-yl) acetamide, reference compound]: the “cytotoxicity on HFF1” value in data set [1] (5 days) is reported as “high cytotoxicity”. Moreover, in data set [1] (HFF1, 24 h treatment), the “concentration at which cytotoxicity started to show” value is given as greater than 50 µM. Also, the entries for the “HFF1 LD50” value in data set [1] (24 h) and in data set [1] (5 days) were 165 ± 27 (3) µM and 118 ± 14 (3) µM, respectively. The “S.I. LD50/ED50” value in data set [2] (24 h) was determined as 18; in data set [2] (5 days), 7. Moreover, the IC50 turned out to be 17 ± 10 µM in data set [2] (setting [4]) and 9.4 ± 1.3 µM in data set [2] (setting [5]). Moreover, in data set [3] (setting [6]), the LC50 stood at 183 µM.
Regarding `Nc1nc(N)c2cc(NC(=O)c3ccccc3)ccc2n1` [Compound 1, N-(2,4-Diaminequinazolin-6-yl)benzamide], in data set [1] (24 h treatment), the “cytotoxicity on HFF1” value was “did not show either cytotoxicity or parasiticidal effects”. Moreover, the “HFF1 LD50” value is given as >100 (6) µM in data set [1] (24 h) and >100 (2) µM in data set [1] (5 days). The IC50 in data set [2] (setting [4]) and in data set [2] (setting [5]) was greater than 100 µM throughout. Moreover, in data set [2], the “antiparasitic effect, summary in words” value is given as “did not showed an effect in parasites nor in cells”. For the same compound, the LC50 in data set [3] (3 h) was greater than 150 µM.
In the case of `Nc1nc(N)c2cc(NC(=O)c3ccccc3[N+](=O)[O-])ccc2n1` [Compound 2, N-(2,4-Diaminequinazolin-6-yl)-2-nitrobenzamide], the “HFF1 LD50” value in data set [1] (24 h) is >100 (6) µM; in data set [1] (5 days) it was >100 (2) µM. Moreover, the “S.I. LD50/ED50” value is given as no less than 5 in data set [2] (24 h) and no less than 6.7 in data set [2] (5 days). The IC50 came to 15 ± 3 µM in data set [2] (setting [4]) and 19 ± 2 µM in data set [2] (setting [5]). Further, the LC50 in data set [3] (setting [6]) was 95 µM.
As to `Nc1nc(N)c2cc(NC(=O)c3cccc([N+](=O)[O-])c3)ccc2n1` [Compound 3, N-(2,4-Diaminequinazolin-6-yl)-3-nitrobenzamide], the “HFF1 LD50” value is recorded as >100 (6) µM in data set [1] (24 h) and >100 (2) µM in data set [1] (5 days). Moreover, the entries for the “S.I. LD50/ED50” value in data set [2] (24 h) and in data set [2] (5 days) were no less than 42 and no less than 11, respectively. Besides, the results for the IC50 in data set [2] (setting [4]) and in data set [2] (setting [5]) were 8.9 µM and 2.4 ± 0.4 µM, respectively. The LC50 in data set [3] (setting [6]) stood at 50 µM.
Turning to `Nc1nc(N)c2cc(NC(=O)c3ccc([N+](=O)[O-])cc3)ccc2n1` [Compound 4, N-(2,4-Diaminequinazolin-6-yl)-4-nitrobenzamide], the results for the “HFF1 LD50” value in data set [1] (24 h) and in data set [1] (5 days) were >100 (6) µM and >100 (2) µM, respectively. For the same compound, the “S.I. LD50/ED50” value in data set [2] (24 h) and in data set [2] (5 days) was no less than 10 each time. The IC50 in data set [2] (setting [4]) was found to be 10 µM; in data set [2] (setting [5]), 10 ± 0.4 µM. Also, in data set [3] (setting [6]), the LC50 amounted to 60 µM.
Regarding `Nc1nc(N)c2cc(NCc3ccccc3)ccc2n1` [Compound 5], the “HFF1 LD50” value in data set [1] (24 h) is reported as >60 (4) µM; in data set [1] (5 days) it was 26 (2) µM. In addition, the “S.I. LD50/ED50” value in data set [2] (24 h) was no less than 5. The IC50 in data set [2] (setting [4]) is 14 ± 2 µM; in data set [2] (setting [5]), 13 ± 3 µM. Further, the LC50 in data set [3] (3 h) was greater than 150 µM.
In the case of `Nc1nc(N)c2cc(NCc3ccccc3[N+](=O)[O-])ccc2n1` [Compound 6], the “Epi ED50 (initial screening)” value in data set [2] (epimastigote growth, 24 h) was 143 * (2) µM.
On to `Nc1nc(N)c2cc(NCc3ccc([N+](=O)[O-])cc3)ccc2n1` [Compound 7], for which the “Epi ED50 (initial screening)” value in data set [2] (epimastigote growth, 24 h) was >100 * (2) µM.
In the case of `Nc1nc(N)c2cc(NCc3ccccc3Cl)ccc2n1` [Compound 8], the results for the “HFF1 LD50” value in data set [1] (24 h) and in data set [1] (5 days) were 8.6 ± 2 (4) µM and 8 (2) µM, respectively. The “S.I. LD50/ED50” value in data set [2] (24 h) worked out at 4. The IC50 is 6.6 ± 0.5 µM in data set [2] (setting [4]) and 2.3 ± 0.5 µM in data set [2] (setting [5]). Further, the “antiparasitic effect, summary in words” value in data set [2] was “highly toxic for parasites and fibroblasts”. Moreover, the LC50 in data set [3] (3 h) was determined as 59 µM.
`Nc1nc(N)c2cc(NCc3cccc(Cl)c3)ccc2n1` [Compound 9]: the “HFF1 LD50” value in data set [1] (24 h) was 85 ± 7 (6) µM; in data set [1] (5 days), >100 (2) µM. In addition, the “S.I. LD50/ED50” value in data set [2] (24 h) is listed as 11; in data set [2] (5 days), no less than 12. Also, the results for the IC50 in data set [2] (setting [4]) and in data set [2] (setting [5]) were 8.1 ± 1.8 µM and 7.6 ± 2.5 µM, respectively. Besides, in data set [3] (setting [6]), the LC50 was greater than 150 µM.
Consider `Nc1nc(N)c2cc(NCc3ccc(Cl)cc3)ccc2n1` [Compound 10], for which the “HFF1 LD50” value is recorded as 116 ± 13 (6) µM in data set [1] (24 h) and >100 (2) µM in data set [1] (5 days). Moreover, the “S.I. LD50/ED50” value in data set [2] (24 h) is 13; in data set [2] (5 days), no less than 7. Further, the figures for the IC50 in data set [2] (setting [4]) and in data set [2] (setting [5]) were 14 ± 1.2 µM and 8.9 ± 2 µM, respectively. Also, the LC50 in data set [3] (setting [6]) is greater than 150 µM.
On to `Nc1nc(N)c2cc(NCc3cc(F)ccc3F)ccc2n1` [Compound 11, N^6-(2,5-Difluorobenzyl)quinazoline-2,4,6-triamine], for which the “HFF1 LD50” value in data set [1] (24 h) was >60 (4) µM; in data set [1] (5 days), >60 (1) µM. For the same compound, the “S.I. LD50/ED50” value was no less than 7 in data set [2] (24 h) and no less than 3 in data set [2] (5 days). The IC50 is 20 ± 2 µM in data set [2] (setting [4]) and 9 ± 1.4 µM in data set [2] (setting [5]). In addition, the LC50 in data set [3] (setting [6]) was greater than 150 µM.
On to `Nc1nc(N)c2cc(NCc3ccccc3OC(F)(F)F)ccc2n1` [Compound 12], for which, in data set [2] (epimastigote growth, 24 h), the “Epi ED50 (initial screening)” value is recorded as 44 ± 3 (3) µM.
For the compound `Nc1nc(N)c2cc(NCc3cccc(O)c3)ccc2n1` [Compound 13], the “Epi ED50 (initial screening)” value in data set [2] (epimastigote growth, 24 h) is reported as >100 * (2) µM.
Regarding `COc1cc(CNc2ccc3nc(N)nc(N)c3c2)cc(OC)c1OC` [Compound 14, N^6-(3,4,5-Trimethoxybenzyl)quinazoline-2,4,6-triamine], the “Epi ED50 (initial screening)” value in data set [2] (epimastigote growth, 24 h) is on record as >100 * (2) µM.
For the compound `CC1CS(=O)(=O)CCN1/N=C/c1ccc([N+](=O)[O-])o1` (stereo not drawn) [Nfx, (E)-N-(3-methyl-1,1-dioxo-1,4-thiazinan-4-yl)-1-(5-nitrofuran-2-yl) methanimine, reference compound], the IC50 in data set [2] (setting [4]) turned out to be 11.8 ± 0.1 µM; in data set [2] (setting [5]) it was 3.8 ± 1.2 µM.
